This note sets out measurements from ChEMBL document CHEMBL4808170, “Structure-Based Design of Potent and Orally Active Isoindolinone Inhibitors of MDM2-p53 Protein-Protein Interaction” (J Med Chem, 2021).

Data set [1] can be described thus: Inhibition of MDM2/IP3 (unknown origin) protein-protein interaction expressed using TNT T7 coupled reticulocyte lysate system incubated for 90 mins by ELISA. Background: ELISA stands for enzyme-linked immunosorbent assay.
Data set [2] deals with SJSA-1. As to the kind of experiment: Antiproliferative activity against human SJSA-1 cells expressing wild type TP53 incubated for 72 hrs by Sulforhodamine B assay. It is filed as functional. For orientation: In SRB staining, fixed cells bind dye roughly in proportion to their protein.
Data set [3] is described as follows: Antiproliferative activity against human SN40R2 cells derivative of SJSA-1 cells expressing mutant TP53 at 50 uM incubated for 72 hrs by Sulforhodamine B assay. The format is functional.
The nature of data set [4]: Lipophilicity, logD of compound at pH 7.4 by Chromatography. It is filed as physicochemical. The settings on record: buffer.
Data set [5] can be described thus: Plasma protein binding in BALB/c mouse incubated for 48 hrs. The settings on record: read-out: PPB (converted). It is filed as ADME, cell-free.
A short description of data set [6]: Plasma protein binding in human incubated for 48 hrs. It is filed as ADME, cell-free. The settings on record: read-out: PPB (converted).
Data set [7] is described as follows: Metabolic stability in CD1 mouse liver microsomes assessed as half life at 1 uM. It is filed as ADME, Microsome. Background: Microsomes from liver hold many membrane-bound enzymes, among them those of drug oxidation.
Data set [8] in a line: Metabolic stability in human liver microsomes assessed as half life at 1 uM. It is filed as ADME, Microsome.
For data set [9], the target named is T1, CYP3A4 (Homo sapiens, UniProt P08684). As to the kind of experiment: Inhibition of human CYP3A4 expressed in human supersomes assessed as half life in presence of NADPH at 1 uM using midazolam as substrate measured after 40 mins. The format is ADME. The settings on record: supersomes expressing human CYP3A4, probe midazolam.
T1 sequence (P08684 whole entry): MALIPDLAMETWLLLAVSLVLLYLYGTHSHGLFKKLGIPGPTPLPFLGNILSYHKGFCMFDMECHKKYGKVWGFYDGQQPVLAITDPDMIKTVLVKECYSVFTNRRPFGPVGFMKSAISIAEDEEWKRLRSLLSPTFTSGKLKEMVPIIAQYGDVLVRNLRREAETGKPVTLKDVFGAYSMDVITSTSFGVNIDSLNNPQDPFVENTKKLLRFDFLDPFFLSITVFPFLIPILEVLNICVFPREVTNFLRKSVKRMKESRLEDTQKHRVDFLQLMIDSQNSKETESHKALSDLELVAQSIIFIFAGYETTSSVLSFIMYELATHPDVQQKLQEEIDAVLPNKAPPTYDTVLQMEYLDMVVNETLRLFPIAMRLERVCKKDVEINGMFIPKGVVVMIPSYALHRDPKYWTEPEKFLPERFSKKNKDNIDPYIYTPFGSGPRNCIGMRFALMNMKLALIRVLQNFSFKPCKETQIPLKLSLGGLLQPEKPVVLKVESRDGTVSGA
A short description of data set [10]: Plasma clearance in BALB/c mouse at 5 mg/kg, po by HPLC analysis. It is filed as ADME, organism-based.
Data set [11] is described as follows: Oral bioavailability in BALB/c mouse at 5 mg/kg by HPLC analysis. It is filed as ADME, organism-based. The settings on record: in vivo.
Data set [12] is described as follows: In vivo clearance in nonhuman primate at 0.2 mg/kg, iv by HPLC analysis. The settings on record: primates. It is filed as ADME, organism-based.
Data set [13] can be described thus: Oral bioavailability in nonhuman primate at 5 mg/kg by HPLC analysis. The settings on record: primates, in vivo. It is filed as ADME, organism-based.
Data set [14] concerns the target T1, CYP3A4. As to the kind of experiment: Inhibition of CYP3A4 (unknown origin) using midazolam as substrate in presence of NADPH at 8 uM. The format is ADME. The settings on record: probe midazolam.
Data set [15] can be described thus: Antiproliferative activity against human SN40R2 cells derivative of SJSA-1 cells expressing mutant TP53 at 30 uM incubated for 72 hrs by Sulforhodamine B assay. It is filed as functional.
The subject of data set [16] is SJSA-1. As to the kind of experiment: Antitumor activity in human SJSA-1 cells […] CD-1 mouse xenograft model assessed as increase in p53 expression in tumor at 50 mg/kg, po single dose measured after 3 hrs by MSD analysis relative to control. The format is functional.
Data set [17] relates to SJSA-1. As to the kind of experiment: Antitumor activity in human SJSA-1 cells […] CD-1 mouse xenograft model assessed as increase in p53 expression in tumor at 50 mg/kg, po single dose measured after 6 hrs by MSD analysis relative to control. It is filed as functional.
The subject of data set [18] is SJSA-1. As to the kind of experiment: Antitumor activity in human SJSA-1 cells […] CD-1 mouse xenograft model assessed as inhibition of tumor growth at 50 mg/kg, po single dose for 7 days relative to control. It is filed as functional. The settings on record: time 7 day.
Data set [19] is described as follows: Toxicity in CD-1 mouse xenografted human SJSA-1 cells assessed as change in body weight at 50 mg/kg, po single dose for 7 days relative to control. It is filed as organism-based. The settings on record: in vivo, 168 h, time 7 day.
The nature of data set [20]: Toxicity in CD-1 mouse xenografted human SJSA-1 cells assessed as adverse effect at 50 mg/kg, po single dose for 7 days relative to control. The settings on record: in vivo, 168 h, time 7 day. The format is organism-based.
Data set [21] is described as follows: Drug metabolism in mouse liver microsomes assessed as retention time of metabolite rac-1-(((2-(4-chlorobenzyl)-1-(4-chlorophenyl)-5-(2-hydroxypropan-2-yl)-3-oxoisoindolin-1-yl)oxy)methyl)cyclopropane-1-carboxylic acid at 10 uM by LC-MS analysis. The format is ADME, Microsome.
The nature of data set [22]: Antiproliferative activity against human SN40R2 cells derivative of SJSA-1 cells expressing mutant TP53 incubated for 72 hrs by Sulforhodamine B assay. It is filed as functional.
Data set [23] in a line: Drug metabolism in mouse liver microsomes assessed as metabolite rac-1-(((2-(4-chlorobenzyl)-1-(4-chlorophenyl)-5-(2-hydroxypropan-2-yl)-3-oxoisoindolin-1-yl)oxy)methyl)cyclopropane-1-carboxylic acid formation at 10 uM measured up to 40 mins by LC-MS analysis. The format is ADME, Microsome.
The nature of data set [24]: Drug metabolism in mouse liver microsomes assessed as retention time of compound at 10 uM by LC-MS analysis. It is filed as ADME, Microsome.
Data set [25] in a line: Drug metabolism in mouse liver microsomes assessed as retention time of metabolite aryl-iminium ion at 10 uM by LC-MS analysis. The format is ADME, Microsome.

As usually defined, the IC50 is the concentration that gives 50% inhibition. High values mean weaker potency, low ones greater potency. For orientation: GI50 means the concentration at which growth is held to half of that of the control. As usually defined, the chromatographic logD is a lipophilicity value derived from retention on a column. A higher chromatographic logD goes with higher lipophilicity. Consider `[2H]C([2H])(O)C1(C([2H])([2H])O[C@]2(c3ccc(Cl)cc3)c3c(F)cc(C(C)(C)O)cc3C(=O)N2Cc2ncc(C#N)cn2)CC1`, for which, in data set [1], half-maximal inhibition (IC50) required 3.1 nM. In data set [2], this molecule returned a GI50 of 260 nM. In [3], the Activity is 19%. In addition, the chromatographic logD in data set [4] is 3.9.
Broadly, the half-life is how long it takes for the measured level to halve. In general, CL/F refers to clearance divided by bioavailability, as obtained after extravascular dosing. As a reminder, the bioavailability is dose-corrected exposure relative to a reference, in per cent. One may read the clearance as the volume of plasma or blood freed of the substance per unit of time. Read a high clearance as a high capacity for elimination. The term inhibition denotes the share of the control response that was lost under treatment. As usually defined, the T/C is the result in the treated group divided by that in the control group, in per cent. In turn, `[2H]C([2H])(O)C1(C([2H])([2H])O[C@]2(c3ccc(Cl)cc3)c3c(F)cc(C(C)(C)O)cc3C(=O)N2Cc2ccc(C#N)cn2)CC1` returned an IC50 in data set [1] of 3.8 nM. This molecule registered a 50% growth inhibitory concentration (GI50) in data set [2] of 200 nM. Further, the fraction unbound at 48 h in [5] was 0.094; in data set [6], 0.086. Besides, the figures for the half-life at 1 µM in [7], in [8] and in [9] were 27 min, 52 min and 14 min, respectively. Besides, in data set [10], the CL/F was determined as 11 mL/min/kg. Further, the bioavailability was determined as 46% in [11] and 31% in data set [13]. The molecule further showed a clearance in data set [12] of 11 mL/min/kg. The inhibition at 8 µM in [14] was found to be 46%. Besides, the values for the Activity in data set [15], in data set [19] and in data set [20] were 20%, “Non-Toxic” and “Non-Toxic”, respectively. Also, the chromatographic logD in data set [4] came to 3.8. Besides, the “fold change (FC)” value in [16] is given as 3.7; in data set [17], 10.3. The T/C in data set [18] was found to be 21%.
Regarding `CC(C)(O)c1ccc2c(c1)C(=O)N(Cc1ccc(Cl)cc1)[C@@]2(OCC1(CO)CC1)c1ccc(Cl)cc1`, the Retention_time amounted to 2.12 min in data set [21], 2.3 min in [24] and 2.13 min in [25]. The concentration for 50% growth inhibition (GI50) in data set [22] is 18000 nM. Besides, the fraction unbound at 48 h in data set [5] was 0.001; in data set [6] it was 0.002. Further, the half-life at 1 µM in data set [7] was under 5 min; in data set [8] it was 9.5 min; in data set [9] it was under 5 min. In data set [10], this molecule yielded a CL/F of 25 mL/min/kg. Further, the bioavailability in [11] turned out to be 6.5%. In addition, the Drug metabolism result in data set [23] is reported as “Metabolite_Detected”.
